Source: PMC4019636, “Rational Design of Berberine-Based FtsZ Inhibitors with Broad-Spectrum Antibacterial Activity” (PLoS ONE, 2014)
Values after ≈ are worked out from the molar mass of the structure shown. Like-named read-outs stand apart in the source and are kept apart here.

How the values were obtained:
S. aureus FtsZ = target: T1, S. aureus FtsZ (Staphylococcus aureus, UniProt P0A031); assay: Light scattering assay of FtsZ polymerization; format: biochemical; conditions: 1 mM compound; negative control
T1 construct: made in house; host or cells: E. coli BL21(DE3)
T1 sequence (P0A031 1-390): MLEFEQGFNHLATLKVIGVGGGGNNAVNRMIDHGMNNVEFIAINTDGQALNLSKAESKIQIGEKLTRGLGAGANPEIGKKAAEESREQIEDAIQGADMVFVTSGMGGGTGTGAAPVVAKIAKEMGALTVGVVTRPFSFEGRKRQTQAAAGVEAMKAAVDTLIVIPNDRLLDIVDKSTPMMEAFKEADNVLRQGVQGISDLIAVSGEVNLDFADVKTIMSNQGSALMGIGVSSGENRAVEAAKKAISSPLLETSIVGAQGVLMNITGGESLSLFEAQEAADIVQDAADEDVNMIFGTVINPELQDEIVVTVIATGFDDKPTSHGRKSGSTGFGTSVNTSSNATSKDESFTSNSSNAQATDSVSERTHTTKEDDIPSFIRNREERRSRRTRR
Experimental: E. coli BL21(DE3) cells were transformed with the pRSET-A-S vector carrying S. aureus FtsZ with a 6-histidine tag attached at its N-terminus under the control of a T7 promoter. […] When the OD600 reached 0.8, protein expression was induced with 0.4 mM isopropyl-β-D-thiogalactopyranoside (IPTG) for 4 h. Cells were harvested by centrifugation at 9000 rpm for 20 min at 4°C. The cell pellet was resuspended in 20 mL of solubilization buffer (50 mM Tris-HCl, 150 mM NaCl, 1 mM PMSF and 1 mM EDTA, pH 7.4) and then lysed with 1 mg/mL of lysozyme. The mixture was incubated for 1 h on ice. The cells were disrupted by sonication and the crude lysate obtained was centrifuged at 13,000 rpm for 1 h at 4°C. The supernatant containing 6-histidine tagged S. aureus FtsZ was collected and loaded onto a nickel charged HiTrap chelating column pre-equilibrated with starting buffer (20 mM sodium phosphate buffer, 0.5 M NaCl, pH 7.4). The column was then washed with 8 column volumes of the starting buffer to remove the unbound proteins, and the histidine-tagged enzyme was eluted by a linear gradient of 0−0.2 M imidazole. Fractions containing S. aureus FtsZ were pooled, buffer-exchanged with 20 mM NH4HCO3 (pH 8.0) at 4°C, lyophilized, and stored at −20°C. A stock solution of S. aureus FtsZ for the subsequent bioassay was prepared from the lyophilized powder.
The light scattering assay was performed using a protocol adapted from the literature. The polymerization and depolymerization of recombinant S. aureus FtsZ was measured using 90° light scattering in a thermostatically (37°C) controlled fluorescence spectrometer (Perkin Elmer, USA). Both excitation and emission wavelengths were set to 600 nm with a slit width of 2.5 nm. S. aureus FtsZ (6 µM) in 50 mM of MOPS buffer (pH 6.5) was incubated with vehicle (1% DMSO) or different concentrations of the test compound for 10 min at 25°C. 50 mM KCl and 10 mM MgCl2 were then added to establish a baseline. After 8 min, a final concentration of 1 mM GTP was added at the last fraction and the increase in light scattering was measured for an additional 2000s. The rate and extent of polymerization were measured. Appropriate blanks were subtracted from all experimental data. Moreover, in order to rule out unselective inhibition by formation of aggregates, control experiments with 0.01% (v/v) Triton X-100 from a freshly prepared 1% (v/v) stock solution were performed for berberine and compound 2 [40], [41]. Reported results are the average of three independent experiments.

S. aureus ATCC 29247 = assay: Antimicrobial susceptibility assay (broth microdilution MIC); format: cell-based; conditions: Staphylococcus aureus
From the text: (§1) The bacterial strains S. aureus ATCC 29213, S. aureus ATCC 29247, S. aureus ATCC BAA-41, E. faecium ATCC 49624, E. faecium ATCC 700221, E. faecalis ATCC 29212, S. epidermidis ATCC 12228, E. coli ATCC 25922, and K. pneumoniae ATCC BAA-1144 used in the antimicrobial susceptibility assays were purchased from American Type Culture Collection (ATCC, USA). B. subtilis strain 168 was already available in our in-house collection. E. coli JM109 WM647 was kindly provided by Dr. W. Margolin (University of Texas-Houston Medical School). FM 4–64 was purchased from Invitrogen (Eugene, Oregon). All other chemicals and reagents were purchased from Sigma-Aldrich. Stock solutions were prepared in DMSO. The final percentage of DMSO in the assays was 1% (v/v) for all experiments.
(§2) Antimicrobial susceptibility tests were conducted in 96-well microplates using the broth microdilution procedure described in the Clinical and Laboratory Standards Institute (CLSI) guidelines. Cation-adjusted Mueller Hinton broth for S. aureus strain ATCC 29213, methicillin-resistant S. aureus strain ATCC BAA-41 and ampicillin-resistant S. aureus strain ATCC 29247, or brain heart infusion broth for antibiotic-susceptible E. faecium strain ATCC 49624 and vancomycin-resistant E. faecium strain ATCC 700221, or Mueller Hinton broth for antibiotic-susceptible strains B. subtilis strain 168, E. faecalis strain ATCC 29212 and E. coli strain ATCC 25922 were used in the assays. After incubation for 18 h at 37°C, the absorbance at 600 nm (A600) was recorded using a microplate reader (Bio-Rad laboratory Ltd., UK) and the percentage of bacterial cell inhibition with respect to vehicles (1% DMSO) was calculated. The MIC was defined as the lowest compound concentration at which the growth of bacteria was inhibited by ≥90%. Three independent assays were performed for each test.

[1] = system: S. epidermidis ATCC 12228; assay: as above; format: cell-based; conditions: Staphylococcus epidermidis
From the text: as §1, §2

E. faecalis ATCC 29212 = assay: as above; format: cell-based; conditions: Enterococcus faecalis
From the text: as §1, §2

E. coli ATCC 25922 = assay: as above; format: cell-based; conditions: Escherichia coli
From the text: as §1, §2

B. subtilis 168 = assay: as above; format: cell-based
From the text: as §1, §2

S. aureus ATCC 29213 = assay: as above; format: cell-based; conditions: Staphylococcus aureus
From the text: as §1, §2

S. aureus ATCC BAA-41 = assay: as above; format: cell-based; conditions: Staphylococcus aureus
From the text: as §1, §2

[2] = system: K. pneumoniae ATCC BAA-1144; assay: as above; format: cell-based; conditions: Klebsiella pneumoniae
From the text: as §1, §2

E. faecium ATCC 700221 = assay: as above; format: cell-based; conditions: Enterococcus faecium
From the text: as §1
(§3) Antimicrobial susceptibility tests were conducted in 96-well microplates using the broth microdilution procedure described in the Clinical and Laboratory Standards Institute (CLSI) guidelines. […] After incubation for 18 h at 37°C, the absorbance at 600 nm (A600) was recorded using a microplate reader (Bio-Rad laboratory Ltd., UK) and the percentage of bacterial cell inhibition with respect to vehicles (1% DMSO) was calculated. The MIC was defined as the lowest compound concentration at which the growth of bacteria was inhibited by ≥90%. Three independent assays were performed for each test.

E. faecium ATCC 49624 = assay: as above; format: cell-based; conditions: Enterococcus faecium
From the text: as §1, §3

[3] = ATCC29247, S. aureus ATCC 29247 (ampicillin-resistant), 18 h at 37°C, growth inhibited by ≥90%, read-out: MIC
[4] = ATCC12228, S. epidermidis ATCC 12228, 18 h at 37°C, growth inhibited by ≥90%, read-out: MIC
[5] = ATCC29212, E. faecalis ATCC 29212, Mueller Hinton broth, 18 h at 37°C, growth inhibited by ≥90%, read-out: MIC
[6] = ATCC25922, E. coli ATCC 25922, Mueller Hinton broth, 18 h at 37°C, growth inhibited by ≥90%, read-out: MIC
[7] = Bacillus subtilis, B. subtilis 168, Mueller Hinton broth, 18 h at 37°C, growth inhibited by ≥90%, read-out: MIC
[8] = ATCC29213, S. aureus ATCC 29213, cation-adjusted Mueller Hinton broth, 18 h at 37°C, growth inhibited by ≥90%, read-out: MIC
[9] = ATCCBAA41, S. aureus ATCC BAA-41 (methicillin-resistant), 18 h at 37°C, growth inhibited by ≥90%, read-out: MIC
[10] = ATCCBAA1144, K. pneumoniae ATCC BAA-1144 (Gram-negative, expressing AmpC β-lactamase), 18 h at 37°C, growth inhibited by ≥90%, read-out: MIC

SMILES	MIC (S. aureus ATCC 29247; [3])	MIC [1, 4]	MIC (E. faecalis ATCC 29212; [5])	MIC (E. coli ATCC 25922; [6])	MIC (B. subtilis 168; [7])	MIC (S. aureus ATCC 29213; [8])	MIC (S. aureus ATCC BAA-41; [9])	MIC [2, 10]	other results
CC1(C)S[C@@H]2[C@H](NC(=O)[C@H](N)c3ccccc3)C(=O)N2[C@H]1C(=O)O [Ampicillin, reference compound]	48 µg/mL (≈ 137 µM)	3 µg/mL (≈ 8.59 µM)	6 µg/mL (≈ 17.2 µM)	6 µg/mL (≈ 17.2 µM)	0.1 µg/mL (≈ 0.286 µM)	1.5 µg/mL (≈ 4.29 µM)	> 96 µg/mL	> 96 µg/mL	effect on the polymerization of S. aureus FtsZ (S. aureus FtsZ): no effect
COc1ccc2cc3[n+](cc2c1OCCCBr)CCc1cc2c(cc1-3)OCO2 [Compound 7]	112 µg/mL	112 µg/mL	> 196 µg/mL	384 µg/mL	112 µg/mL	112 µg/mL	196 µg/mL	> 384 µg/mL	MIC (E. faecium ATCC 700221; ATCC700221, E. faecium ATCC 700221 (vancomycin-resistant), brain heart infusion broth, 18 h at 37°C, growth inhibited by ≥90%, read-out: MIC): > 196 µg/mL; MIC (E. faecium ATCC 49624; ATCC49624, E. faecium ATCC 49624, brain heart infusion broth, 18 h at 37°C, growth inhibited by ≥90%, read-out: MIC): > 196 µg/mL
CN[C@H](CC(C)C)C(=O)N[C@H]1C(=O)N[C@@H](CC(N)=O)C(=O)N[C@H]2C(=O)N[C@H]3C(=O)N[C@H](C(=O)N[C@H](C(=O)O)c4cc(O)cc(O)c4-c4cc3ccc4O)[C@H](O)c3ccc(c(Cl)c3)Oc3cc2cc(c3O[C@@H]2O[C@H](CO)[C@@H](O)[C@H](O)[C@H]2O[C@H]2C[C@](C)(N)[C@H](O)[C@H](C)O2)Oc2ccc(cc2Cl)[C@H]1O [Vancomycin, vancomycin, reference compound]									MIC (E. faecium ATCC 700221; ATCC700221, 18 h): > 96 µg/mL; MIC (E. faecium ATCC 49624; ATCC49624, 18 h): 1 µg/mL (≈ 0.69 µM); MIC (S. aureus ATCC 29247; ATCC29247, 18 h): 1 µg/mL (≈ 0.69 µM); MIC ([1]; ATCC12228, 18 h): 1 µg/mL (≈ 0.69 µM); MIC (E. faecalis ATCC 29212; ATCC29212, 18 h): 1 µg/mL (≈ 0.69 µM); MIC (E. coli ATCC 25922; ATCC25922, 18 h): 2 µg/mL (≈ 1.38 µM); MIC (B. subtilis 168; Bacillus subtilis, 168, 18 h): 1 µg/mL (≈ 0.69 µM); MIC (S. aureus ATCC 29213; ATCC29213, 18 h): 1 µg/mL (≈ 0.69 µM); MIC (S. aureus ATCC BAA-41; ATCCBAA41, 18 h): 2 µg/mL (≈ 1.38 µM); MIC ([2]; ATCCBAA1144, 18 h): 6 µg/mL (≈ 4.14 µM)
